Results reported in patent US12201632B2, “Levoketoconazole for treatment of congenital adrenal hyperplasia and primary aldosteronism” (Strongbridge Dublin Limited, priority 2018, dated 2025).
Like-named read-outs stand apart in the source and are kept apart here.

What was measured:
[1] = system: primary human adrenocortical carcinoma cultures; assay: Cortisol production in primary adrenocortical carcinoma cultures; assay type: cell-based
Description: (§1) To obtain primary cultures, adrenal specimens (adrenocortical adenomas, adrenal hyperplasias and adrenocortical carcinomas) were collected after adrenalectomy at the department of Surgery, Erasmus University Medical Center, Rotterdam, the Netherlands, between April 2016 and May 2018. The study was conducted under guidelines that have been approved by the Medical Ethics Committee of the Erasmus Medical Center and informed consent was obtained from all patients. Immediately after surgery, specimens were minced into small pieces of 2-3 mm^3, washed in culture medium and centrifuged for 5 minutes at 600 g. The tissue was stored overnight in culture medium at 4° C., where after the tissue was centrifuged again and the supernatant was removed. Fragments were dissociated using 10-25 ml collagenase type 1 (2 mg/ml: Sigma-Aldrich), followed by incubation at 37° C. for up to two hours. Ficoll (GE healthcare) density gradient separation was used once or twice as required in order to separate contaminating red blood cells from the tumor cells. Cell viability and cell amount were counted by trypan blue exclusion. Dissociated cells were plated at a density of 10^5 cells per well. ACTH-secreting corticotroph pituitary adenoma tissue from patients with Cushing's disease (n=2) was available after transsphenoidal surgery. Single-cell suspensions of the pituitary adenoma tissues were prepared as previously described in detail.
Owing to a limited number of cells obtained from the specimens, not all experiments were carried out in every primary culture.
(§2) Cortisol concentrations were measured in the supernatant using a chemiluminescence immunoassay system (Immulite 2000XPi; Siemens DPC Inc., Los Angeles, Calif., USA). In addition, we carried out multi-steroid analysis by liquid chromatography/mass spectrometry (LC/MS-MS) to accurately quantify androstenedione, corticosterone, cortisol, 11-deoxycortisol, DHEA, DHEAS, progesterone, 17-hydroxyprogesterone, and testosterone. Concentrations that were tested on the LC/MS-MS were closest to 50% inhibition or maximal inhibition of cortisol as determined by the immunoassay. Steroids were quantified with respect to a calibration series, with internal standards. Steroids were quantified on a Xevo TQS LC-MS/MS (Waters Chromatography).
(§3) Statistical analysis was performed using Graphpad Prism 6.0 (Graphpad Software, San Diego, CA). Non-linear regression curve fitting program was used to calculate the half maximal inhibitory concentrations (IC50) on cortisol production. Effects of both compounds on the steroid profile were measured as absolute change compared to control and compared using the Student's t-test. When assessing differences between effects of both compounds, the percentage change was evaluated and compared in order to correct for differences in the vehicle treated control cells. Values of P<0.05 were considered statistically significant and data are presented as mean SEM.

[2] = system: HAC15 cells; assay: Steroid profile by LC/MS-MS in HAC15 cells; assay type: cell-based, Human; details: 0.5 μM; for 11-DOC absolute change vs ACTH stimulation with vehicle / 11-DOC percentage change vs ACTH stimulation with vehicle / 17-OHP absolute change vs ACTH stimulation with vehicle / 17-OHP percentage change vs ACTH stimulation with vehicle / Androstenedione absolute change vs ACTH stimulation with vehicle / Androstenedione percentage change vs ACTH stimulation with vehicle / Corticosterone absolute change vs ACTH stimulation with vehicle / Corticosterone percentage change vs ACTH stimulation with vehicle / Cortisol absolute change vs ACTH stimulation with vehicle / Cortisol percentage change vs ACTH stimulation with vehicle / DHEA absolute change vs ACTH stimulation with vehicle / DHEA percentage change vs ACTH stimulation with vehicle / DHEAS absolute change vs ACTH stimulation with vehicle / DHEAS percentage change vs ACTH stimulation with vehicle / Prog absolute change vs ACTH stimulation with vehicle / Prog percentage change vs ACTH stimulation with vehicle / Testosterone absolute change vs ACTH stimulation with vehicle / Testosterone percentage change vs ACTH stimulation with vehicle / 11-DOC absolute change vs control / 11-DOC percentage change vs control / 17-OHP absolute change vs control / 17-OHP percentage change vs control / Androstenedione absolute change vs control / Androstenedione percentage change vs control / Corticosterone absolute change vs control / Corticosterone percentage change vs control / Cortisol absolute change vs control / Cortisol percentage change vs control / DHEA absolute change vs control / DHEA percentage change vs control / DHEAS absolute change vs control / DHEAS percentage change vs control / Prog absolute change vs control / Prog percentage change vs control / Testosterone absolute change vs control / Testosterone percentage change vs control: 3 days; for 11-DOC absolute change vs control / 11-DOC percentage change vs control / 17-OHP absolute change vs control / 17-OHP percentage change vs control / Androstenedione absolute change vs control / Androstenedione percentage change vs control / Corticosterone absolute change vs control / Corticosterone percentage change vs control / Cortisol absolute change vs control / Cortisol percentage change vs control / DHEA absolute change vs control / DHEA percentage change vs control / DHEAS absolute change vs control / DHEAS percentage change vs control / Prog absolute change vs control / Prog percentage change vs control / Testosterone absolute change vs control / Testosterone percentage change vs control: HAC15, Basal
Description: Human adrenocortical carcinoma HAC15 and mouse corticotroph AtT20 cells were used, purchased as a kind gift by Dr. W. Rainey, and obtained from Dr. J. Tooze (European Organization for Molecular Biology), respectively. Both cell lines were cultured in 75 cm^2 flasks at 37° C. in a humidified incubator (Greiner Bio-One, Alphen a/d Rijn, the Netherlands) at 5% CO2. Dulbecco's Modified Eagle Medium F12 containing 5% fetal calf serum was used for HAC15, whereas AtT20 cells were cultured in Dulbecco's minimal essential medium (DMEM) supplemented with 10% fetal calf serum. Both mediums were supplemented with L-glutamine (2 mmol/L) and penicillin (10^5 U/L). Short tandem repeat (str) profiling using a Powerplex Kit (Promega, Leiden, the Netherlands) of HAC15 and AtT20 gave results consistent with the ATCC database, confirming the identity of both cell lines. Medium and supplements were obtained from Invitrogen, Breda, the Netherlands. Once a week, cells were harvested with trypsin (0.05%)-EDTA (0.53 mM) and resuspended in culture medium. Levoketoconazole (COR-003) and racemic ketoconazole (both from Cortendo AB) were dissolved in absolute ethanol (EtOH), according to manufacturer's instructions, and stored at −20° C. at a stock concentration of […]. At the start of each experiment, both drugs were freshly prepared and diluted in EtOH in the correct concentrations. Synacten (synthetic ACTH, Novartis Pharma A.G.) stock concentration was stored at 4° C. and dissolved in culture medium at the day of use. The final concentrations of ACTH were chosen based on a dose-response curve in HAC15 cells and previously reported studies in the literature. For HAC15, 200,000 and 100,000 cells were plated in 0.5 ml medium in 24 well plates for experiments of 1 and 3 days, respectively. For AtT20, cell amounts were 100,000 and 30,000. One day after seeding the HAC15 cells, the medium was refreshed and cells were treated 1 or 3 days in quadruplicate with levoketoconazole or racemic ketoconazole (0.05-5 μM), with or without 10 nM ACTH. To study effects of both compounds on pituitary AtT20 cells, concentrations of 0.1 to 10 μM of both drugs were used. Controls were vehicle treated. […] Media were collected after 1 or 3 days of incubation and stored at −20° C. until analysis. All cell culture experiments were carried out at least twice.
as §2, §3

[3] = system: ACTH independent hyperplasia cultures; assay: Cortisol production in primary ACTH independent hyperplasia cultures; assay type: cell-based, human; details: 3 days; for IC50 inhibition of cortisol production: ACTH independent hyperplasia no. 1, basal condition
Description: as §1, with “ACTH-secreting corticotroph pituitary adenoma tissue from patients with Cushing's disease (n=2) was available after transsphenoidal surgery. Single-cell suspensions of the pituitary adenoma tissues were prepared as previously described in detail.” left out
as §2, with “Concentrations that were tested on the LC/MS-MS were closest to 50% inhibition or maximal inhibition of cortisol as determined by the immunoassay.” left out
Statistical analysis was performed using Graphpad Prism 6.0 (Graphpad Software, San Diego, CA). […] Effects of both compounds on the steroid profile were measured as absolute change compared to control and compared using the Student's t-test. […]

## CC(=O)N1CCN(c2ccc(OCC3COC(Cn4ccnc4)(c4ccc(Cl)cc4Cl)O3)cc2)CC1 (racemic) [racemic ketoconazole, Ketoconazole]
[1]; Homo sapiens, 72 h, ACC no. 2, basal condition, 3 days, read-out: IC50 inhibition of cortisol production
  IC50: 76.3 nM
[1]; Homo sapiens, 72 h, ACC no. 3, basal condition, 3 days, read-out: IC50 inhibition of cortisol production
  IC50: 67.6 nM
[2]; HAC15, ACTH
  total sum of decrease of steroids: −1,591 nmol/L
  11-DOC absolute change vs ACTH stimulation with vehicle: -664.5 nmol/L
  11-DOC percentage change vs ACTH stimulation with vehicle: (−22%****)
  17-OHP absolute change vs ACTH stimulation with vehicle: -14.13 nmol/L
  17-OHP percentage change vs ACTH stimulation with vehicle: (−29%***)
  Androstenedione absolute change vs ACTH stimulation with vehicle: -661.4 nmol/L
  Androstenedione percentage change vs ACTH stimulation with vehicle: (−40%*)
  Corticosterone absolute change vs ACTH stimulation with vehicle: -0.0125 nmol/L
  Corticosterone percentage change vs ACTH stimulation with vehicle: (−1.5%****)
  Cortisol absolute change vs ACTH stimulation with vehicle: -15.15 nmol/L
  Cortisol percentage change vs ACTH stimulation with vehicle: (−45%****)
  DHEA absolute change vs ACTH stimulation with vehicle: -17.04 nmol/L
  DHEA percentage change vs ACTH stimulation with vehicle: (−41%***)
  DHEAS absolute change vs ACTH stimulation with vehicle: -197.4 nmol/L
  DHEAS percentage change vs ACTH stimulation with vehicle: (−35%)
  Prog absolute change vs ACTH stimulation with vehicle: -0.9625 nmol/L
  Prog percentage change vs ACTH stimulation with vehicle: (−30%****)
  Testosterone absolute change vs ACTH stimulation with vehicle: -20.29 nmol/L
  Testosterone percentage change vs ACTH stimulation with vehicle: (−50%****)
[2]
  11-DOC absolute change vs control: -521.2 nmol/L
  11-DOC percentage change vs control: (−23%****)
  17-OHP absolute change vs control: -16.50 nmol/L
  17-OHP percentage change vs control: (−37%****)
  Androstenedione absolute change vs control: -809.0 nmol/L
  Androstenedione percentage change vs control: (−47%**)
  Corticosterone absolute change vs control: +0.1750 nmol/l
  Corticosterone percentage change vs control: (+19%****)
  Cortisol absolute change vs control: -10.93 nmol/L
  Cortisol percentage change vs control: (−47%****)
  DHEA absolute change vs control: -39.50 nmol/L
  DHEA percentage change vs control: (−56%**)
  DHEAS absolute change vs control: -496.4 nmol/L
  DHEAS percentage change vs control: (−44%*)
  Prog absolute change vs control: -0.3125 nmol/L
  Prog percentage change vs control: (−19%****)
  Testosterone absolute change vs control: -25.78 nmol/L
  Testosterone percentage change vs control: (−58%***)
[2]; HAC15, basal
  total sum of decrease of steroids: −1,919 nmol/L
[3]
  IC50 inhibition of cortisol production: Ambiguous
[3]; Homo sapiens, 72 h, ACTH independent hyperplasia no. 2, ACTH (85 μM) stimulated condition, read-out: IC50 inhibition of cortisol production
  IC50: 1390 nM

## CC(=O)N1CCN(c2ccc(OC[C@@H]3CO[C@@](Cn4ccnc4)(c4ccc(Cl)cc4Cl)O3)cc2)CC1 (relative stereo) [levoketoconazole, 2S,4R cis-1-acetyl-4-[4-[[2-(2,4-dichlorophenyl)-2-(1H-imidazol-1-ylmethyl)-1,3-dioxolan-4-yl]methoxyl]phenyl]piperazine]
[1]; ACC no. 1, basal condition, 3 days, read-out: IC50 inhibition of cortisol production
  IC50: 5.78 nM
[1]; ACC no. 2, basal condition, 3 days, read-out: IC50 inhibition of cortisol production
  IC50: 57.1 nM
[1]; ACC no. 3, ACTH (85 μM) stimulated condition, 3 days, read-out: IC50 inhibition of cortisol production
  IC50: 32.1 nM
[1]; ACC no. 3, basal condition, 3 days, read-out: IC50 inhibition of cortisol production
  IC50: 73.1 nM
[1]; basal condition, ACC (n=3), read-out: mean IC50 cortisol production
  IC50: 38.3 nM
[2]; HAC15, ACTH
  total sum of decrease of steroids: −2,811 nmol/L
  11-DOC absolute change vs ACTH stimulation with vehicle: -1524 nmol/L
  11-DOC percentage change vs ACTH stimulation with vehicle: −47%
  17-OHP absolute change vs ACTH stimulation with vehicle: -24.73 nmol/L
  17-OHP percentage change vs ACTH stimulation with vehicle: (−47%)
  Androstenedione absolute change vs ACTH stimulation with vehicle: -943.7 nmol/L
  Androstenedione percentage change vs ACTH stimulation with vehicle: (−52%)
  Corticosterone absolute change vs ACTH stimulation with vehicle: -1.063 nmol/L
  Corticosterone percentage change vs ACTH stimulation with vehicle: (−36%)
  Cortisol absolute change vs ACTH stimulation with vehicle: -13.81 nmol/L
  Cortisol percentage change vs ACTH stimulation with vehicle: −31%
  DHEA absolute change vs ACTH stimulation with vehicle: -13.81 nmol/L
  DHEA percentage change vs ACTH stimulation with vehicle: (−31%)
  DHEAS absolute change vs ACTH stimulation with vehicle: -250.1 nmol/L
  DHEAS percentage change vs ACTH stimulation with vehicle: (−43%)
  Prog absolute change vs ACTH stimulation with vehicle: -2.163 nmol/L
  Prog percentage change vs ACTH stimulation with vehicle: (−64%)
  Testosterone absolute change vs ACTH stimulation with vehicle: -30.52 nmol/L
  Testosterone percentage change vs ACTH stimulation with vehicle: (−71%)
[2]; HAC15, ACTH, listed as LK
  11-DOC absolute change vs ACTH stimulation with vehicle: -1524 nmol/L
  11-DOC percentage change vs ACTH stimulation with vehicle: (−47%)
  Cortisol absolute change vs ACTH stimulation with vehicle: -21.80 nmol/L
  Cortisol percentage change vs ACTH stimulation with vehicle: (−65%)
[2]
  11-DOC absolute change vs control: -1129 nmol/L
  11-DOC percentage change vs control: (−48%)
  17-OHP absolute change vs control: -26.89 nmol/L
  17-OHP percentage change vs control: (−57%)
  Androstenedione absolute change vs control: -1105 nmol/L
  Androstenedione percentage change vs control: (−56%)
  Corticosterone absolute change vs control: -0.2938 nmol/L
  Corticosterone percentage change vs control: (−39%)
  Cortisol absolute change vs control: -16.36 nmol/L
  Cortisol percentage change vs control: (−69%)
  DHEA absolute change vs control: -31.04 nmol/L
  DHEA percentage change vs control: (−44%)
  DHEAS absolute change vs control: -658.6 nmol/L
  DHEAS percentage change vs control: (−56%)
  Prog absolute change vs control: -0.9125 nmol/L
  Prog percentage change vs control: (−55%)
  Testosterone absolute change vs control: -39.19 nmol/L
  Testosterone percentage change vs control: (−64%)
[2]; HAC15, basal
  total sum of decrease of steroids: −3,007 nmol/L
[3]
  IC50 inhibition of cortisol production: Ambiguous
